We go through 3 compounds from ChEMBL document CHEMBL3045101, “Hypoglycemic effect of astaxanthin from shrimp waste in alloxan-induced diabetic mice” (2012).

Assay [1] deals with Mus musculus. Description: Hypoglycemic activity in Mus musculus Kunming (mouse) assessed as reduction of 16 hr fasting plasma glucose level at 5 mg/kg, po qd for 7 days by oral glucose tolerance test (reference value: 6.20 +/- 0.63 mmol/l). The class given is functional.
In assay [2] the test system is Mus musculus. Description: Antidiabetic activity in Mus musculus Kunming (mouse) alloxan-induced diabetic model assessed as reduction of 16 hr fasting plasma glucose level at 5 mg/kg, po qd for 7 days (reference value: 6.11 +/- 0.64 mmol/l). The class given is functional.
Assay [3] concerns Mus musculus. In words: Hypoglycemic activity in Mus musculus Kunming (mouse) assessed as reduction of AUC of plasma glucose level at 5 to 10 mg/kg, po qd for 7 days by oral glucose tolerance test. The class given is functional, organism-based.
In assay [4] the test system is Mus musculus. In words: Hypoglycemic activity in Mus musculus Kunming (mouse) assessed as reduction of 16 hr fasting plasma glucose level at 10 mg/kg, po qd for 7 days by oral glucose tolerance test (reference value: 6.20 +/- 0.63 mmol/l). The class given is functional.
In assay [5] the test system is Mus musculus. Description: Antidiabetic activity in Mus musculus Kunming (mouse) alloxan-induced diabetic model assessed as reduction of 16 hr fasting plasma glucose level at 10 mg/kg, po qd for 7 days (reference value: 6.11 +/- 0.64 mmol/l). The class given is functional.
Assay [6] deals with Mus musculus. Description: Hypoglycemic activity in Mus musculus Kunming (mouse) assessed as reduction of 16 hr fasting plasma glucose level at 2.4 mg/kg, po qd for 7 days by oral glucose tolerance test (reference value: 6.20 +/- 0.63 mmol/l). The class given is functional.

The source made the active and inactive calls. The calls are words filed in the database; no cut-off is given here.

Turning to `CC1=C(/C=C/C(C)=C/C=C/C(C)=C/C=C/C=C(C)/C=C/C=C(C)/C=C/C2=C(C)C(=O)[C@@H](O)CC2(C)C)C(C)(C)C[C@H](O)C1=O` [ASTAXANTHIN], the Activity is on record as 6.14 mmol/L with Mus musculus [1], 13.03 mmol/L with Mus musculus [2], 6.02 mmol/L in the assay on Mus musculus [4] and 10.11 mmol/L in the assay on Mus musculus [5]. The outcome with Mus musculus [3] was Active.

As for `Cc1ccc(S(=O)(=O)NC(=O)NN2CC3CCCC3C2)cc1` (configuration not stated) [GLICLAZIDE], in the assay on Mus musculus [6], the Activity is listed as 4.69 mmol/L.

For the compound `CN(C)C(=N)NC(=N)N` [METFORMIN], the Activity in the assay with Mus musculus [5] came out at 9.98 mmol/L.
